Measured values taken from patent US12084459B2, “2-(4-{1-[6-(4-isopropyl-phenyl)-imidazo[2,1-b][1,3,4]thiadiazol-2-yl]-piperidin-4-ylmethyl}-piperazin-1-yl)-ethanol and use thereof” (Urifer Ltd., priority 2020, dated 2024).

Legend:
[1] = tested on: metastatic adenocarcinoma PC3 prostate Cancer cells; assay: viability / killing of PC3 cells; assay type: cell-based; conditions: E266 versus E260; compound (I) as tartarate salt in 0.5% Tween-80; FIG. 6
Description: (§1) The compound (I), as tartarate salt was dissolved in 0.5% Tween-80 to affect the viability of several cell lines as follows.
(§2) The effect of the compound (I) (E266) on the growth profile of cancer cells which express Fer was tested. The cells that were tested were: the metastatic colon cancer cell line—SW620, the metastatic pancreatic ductal-adenocarcinoma SU.86.86 cancer cell-line—SU.86.86, the metastatic Triple Negative breast cancer cell line—MDA-MB-231, and the metastatic prostate cancer cell-line—PC3. The effect of the compound (I) (E266) on FS11 cells, a non malignant fibroblastic cell line, was also studied.

[2] = tested on: metastatic Triple negative MDA-MB-231 Breast cancer cells; assay: viability / killing of MDA-MB-231 cells; assay type: cell-based; conditions: E266 versus E260; compound (I) as tartarate salt in 0.5% Tween-80; FIG. 5
Description: as §1, §2

[3] = tested on: metastatic colon cancer SW620 cells; assay: viability / killing of SW620 cells; assay type: cell-based; conditions: E266 versus E260; compound (I) as tartarate salt in 0.5% Tween-80; FIG. 3
Description: as §1, §2

H358 derived xenografts = H358 derived xenografts in Nude mice; assay type: in vivo; conditions: 25 mg/kg daily intraperitoneal in 1% Tween 80, H358 xenografts, FIG. 7
From the text: In vivo activity of the E266 (compound (I) of the present application) compared to that of the E260 (EP 2401283) in H358 derived xenografts in immune-compromised (Nude) mice.
In order to compare the relative efficacy of E266 and E260 in inhibiting the development and progression of malignant tumors in-vivo, the activity in xenograft model in mice was examined for both compounds. H358 derived xenografts in immune-compromised were elicited in (Nude) mice. The H358 cells, which are metastatic bronchioloalveolar carcinoma (BAC)-non-small cell lung cancer (NSCLC) cells, were subcutaneously injected to the back of the nude mice. When the developing xenografts reached 100 mm^3 size, the inflicted animals were divided into three groups, 10 mice in each group. One group received daily intraperitoneal injection of the solvent 1% Tween 80. This solvent/emulsifier is biocompatible and is approved for pharmaceutical applications in humans. The second group received daily intraperitoneal injection of 25 mg/kg E260 dissolved in 1% Tween 80, and the third group got daily intraperitoneal injection of 25 mg/kg, E266 dissolved in the 1% Tween 80, solvent. The progression of the elicited xenografts was monitored by measuring twice a week the volumes of the developing tumors.

[4] = tested on: metastatic pancreatic ductal adenocarcinoma Su.86.86 cancer cells; assay: viability / killing of Su.86.86 cells; assay type: cell-based; conditions: E266 versus E260; compound (I) as tartarate salt in 0.5% Tween-80; FIG. 4
Description: as §1, §2

normal Epithelial cells = assay: effect on normal epithelial cells; assay type: cell-based; conditions: FIG. 2
Description: Compound (I) was dissolved in 20% hydroxypropylcyclodextrane and the volume of administration (IP) was 10 ml/kg.

[5] = insolubility level in PBS/Polysorbate-80 (Tween 80) solution; assay type: physicochemical; conditions: 0.5 mM and 1 mM in PBS/Polysorbate-80 (Tween 80) solution at 25° C. (FIG. 1A, 1B)

CC(C)c1ccc(-c2cn3nc(N4CCC(CN5CCN(C)CC5)CC4)sc3n2)cc1 [Compound E260, reference compound]
killing metastatic adenocarcinoma PC3 prostate Cancer cells [1]: comparable activity | killing metastatic Triple negative MDA-MB-231 Breast cancer cells [2]: comparable activity | killing metastatic colon cancer SW620 cells [3]: comparable activity | progression of the developing tumors (xenograft volume) (H358 derived xenografts): failed to do so | killing metastatic pancreatic ductal adenocarcinoma Su.86.86 cancer cells [4]: comparable activity | effect on normal Epithelial cells (normal Epithelial cells): no effect | solubility (insolubility level) [5]: insoluble
